What was measured:
H1N1 virus = assay: microbe, parasite or virus in culture; type: cell-based; settings: Influenza A virus, H1N1, MDCK
influenza NA protein = influenza NA protein (Influenza A virus, UniProt P03470); type: cell-based, influenza virus (WSN)
in vitro = settings: dog

Chain of influenza NA protein (P03470 whole entry, looked up): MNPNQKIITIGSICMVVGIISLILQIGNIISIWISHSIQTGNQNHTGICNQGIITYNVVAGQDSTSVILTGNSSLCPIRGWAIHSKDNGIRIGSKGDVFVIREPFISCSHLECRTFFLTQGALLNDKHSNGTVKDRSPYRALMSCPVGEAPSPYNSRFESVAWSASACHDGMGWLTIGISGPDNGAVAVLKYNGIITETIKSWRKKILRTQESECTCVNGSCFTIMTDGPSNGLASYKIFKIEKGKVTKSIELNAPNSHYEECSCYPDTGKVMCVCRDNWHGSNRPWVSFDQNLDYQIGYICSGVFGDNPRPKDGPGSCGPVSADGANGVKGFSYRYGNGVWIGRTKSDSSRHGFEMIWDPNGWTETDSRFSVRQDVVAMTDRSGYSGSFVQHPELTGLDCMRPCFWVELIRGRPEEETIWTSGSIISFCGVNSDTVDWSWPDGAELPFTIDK

CCOC(=O)C1=C[C@@H](OC(CC)CC)[C@H](NC(C)=O)[C@@H](N)C1 [OSP, oseltamivir phosphate]
EC50 (H1N1 virus): 360 nM | NA protein degradation (influenza NA protein): no degradation activity | CC50 (in vitro): > 50000 nM

From publication PMC10120310 (Cell Insight, 2022)
